Results as given in ChEMBL document CHEMBL6134783, “Discovery of hybrid Glypromate conjugates with neuroprotective activity against paraquat-induced toxicity” (RSC Med Chem, 2024).
Active and inactive are the calls of the source. The rule behind the calls is not given here.

Legend:
[1] = Neurotoxicity against non-differentiated human SH-SY5Y cells assessed as reduction in cell viability at 100 uM measured after 24 hrs by MTT assay relative to control; assay type: toxicity, cell-based
SH-SY5Y [2] = test: Neuroprotective activity in amyloid beta (25 to 35)-induced non-differentiated human SH-SY5Y cells assessed as reduction in protein aggregation at 100 uM incubated for 24 hrs by ThT fluorescence assay relative to control; assay type: functional
SH-SY5Y [3] = test: Neuroprotective activity against 6-OHDA-induced cytotoxicity in differentiated human SH-SY5Y cells at 100 uM incubated for 48 hrs by NR uptake assay; assay type: functional, cell-based
[4] = Neurotoxicity against retinoic acid/TPA differentiated human SH-SY5Y cells assessed as reduction in cell viability at 100 uM measured after 48 hrs by MTT assay relative to control; assay type: toxicity, cell-based
SH-SY5Y [5] = test: Neuroprotective activity against 6-OHDA-induced cytotoxicity in differentiated human SH-SY5Y cells at 100 uM incubated for 48 hrs by MTT reduction assay relative to control; assay type: functional
SH-SY5Y [6] = test: Neuroprotective activity against PQ-induced cytotoxicity in differentiated human SH-SY5Y cells assessed as viable cells at 100 uM incubated for 48 hrs by MTT reduction assay (reference value: 46.02 +/- 3.61%); assay type: functional; conditions: read-out: Activity
SH-SY5Y [7] = test: Neuroprotective activity against PQ-induced cytotoxicity in differentiated human SH-SY5Y cells assessed as NR uptake at 100 uM incubated for 48 hrs by NR uptake assay (reference value: 36.78 +/- 9.57%); assay type: functional
SH-SY5Y [8] = test: Neuroprotective activity against PQ-induced cytotoxicity in differentiated human SH-SY5Y cells at 100 uM incubated for 48 hrs by NR uptake assay; assay type: functional
SH-SY5Y [9] = test: Neuroprotective activity against PQ-induced cytotoxicity in differentiated human SH-SY5Y cells at 100 uM incubated for 48 hrs by MTT reduction assay; assay type: functional; set-up: scale not given: the % may be the effect or the level left
SH-SY5Y [10] = test: Neuroprotective activity against 6-OHDA-induced cytotoxicity in differentiated human SH-SY5Y cells assessed as NR uptake at 100 uM incubated for 48 hrs by NR uptake assay (reference value: 61.31 +/- 12.93%); assay type: functional

Row | SMILES | Activity [1] | Activity (SH-SY5Y [2]) | Activity (SH-SY5Y [3]) | Cell viability (% of control) [4] | Activity (SH-SY5Y [5]) | other results
1 | COC(=O)[C@H](CCC(=O)NC12CC3CC(C)(CC(C)(C3)C1)C2)NC(=O)[C@@H]1[C@H]2CC[C@H](C2)N1C(=O)CN.O=C(O)C(F)(F)F | 32.77% | – | – | – | – | –
2 | COC(=O)[C@H](CCC(=O)N[C@@H]1CCc2ccccc21)NC(=O)[C@@H]1CCCN1C(=O)CN | – | Active | – | – | – | –
3 | COC(=O)CC[C@H](NC(=O)[C@@H]1[C@H]2CC[C@H](C2)N1C(=O)CNC(=O)OC(C)(C)C)C(=O)NC12CC3CC(C)(CC(C)(C3)C1)C2 | – | – | inactive | 98.1% | inactive | viability at 100 µM (SH-SY5Y [6]): 38.8%
4 | N[C@@H]1CCc2ccccc21 | – | – | – | – | – | Activity (SH-SY5Y [7]): 22.95%; viability at 100 µM (SH-SY5Y [6]): 23.6%
5 | COC(=O)[C@H](CCC(=O)N[C@@H]1CCc2ccccc21)NC(=O)[C@@H]1[C@H]2CC[C@H](C2)N1C(=O)CN(C)C | 90.95% | inactive | inactive | 96.47% | inactive | Activity (SH-SY5Y [8]): <=15%; Activity (SH-SY5Y [9]): 12%
6 | COC(=O)CC[C@H](NC(=O)[C@@H]1[C@H]2CC[C@H](C2)N1C(=O)CNC(=O)OC(C)(C)C)C(=O)NC12CC3CC(CC(C3)C1)C2 | 90.79% | – | – | – | – | –
7 | COC(=O)[C@H](CCC(=O)NC12CC3CC(C)(CC(C)(C3)C1)C2)NC(=O)[C@@H]1[C@H]2CC[C@H](C2)N1C(=O)CN(C)C | 32.77% | – | – | 9.07% | – | –
8 | COC(=O)[C@H](CCC(=O)NC12CC3CC(CC(C3)C1)C2)NC(=O)[C@@H]1CCCN1C(=O)CN | – | inactive | – | – | – | –
9 | NCC(=O)N1CCC[C@H]1C(=O)N[C@@H](CCC(=O)O)C(=O)O | – | 12% | – | – | 12% | Activity (SH-SY5Y [10]): 25.32%; Activity (SH-SY5Y [7]): 36.33%; viability at 100 µM (SH-SY5Y [6]): 25.3%
10 | COC(=O)CC[C@H](NC(=O)[C@@H]1[C@H]2CC[C@H](C2)N1C(=O)CNC(=O)OC(C)(C)C)C(=O)N[C@@H]1CCc2ccccc21 | 86.49% | inactive | – | – | – | –
11 | COC(=O)[C@H](CCC(=O)NC12CC3CC(CC(C3)C1)C2)NC(=O)[C@@H]1[C@H]2CC[C@H](C2)N1C(=O)CNC(=O)OC(C)(C)C | 89.94% | – | – | – | – | –
12 | COC(=O)[C@H](CCC(=O)NC12CC3CC(CC(C3)C1)C2)NC(=O)[C@@H]1[C@H]2CC[C@H](C2)N1C(=O)CN.O=C(O)C(F)(F)F | 89.15% | – | inactive | 96.82% | inactive | Activity (SH-SY5Y [7]): 40.94%
13 | COC(=O)[C@H](CCC(=O)N[C@@H]1CCc2ccccc21)NC(=O)[C@@H]1[C@H]2CC[C@H](C2)N1C(=O)CNC(=O)OC(C)(C)C | 32.77% | – | inactive | 94.07% | inactive | –
14 | NC12CC3CC(CC(C3)C1)C2 [AMANTADINE] | – | 17% | – | – | – | –
15 | COC(=O)CC[C@H](NC(=O)[C@@H]1[C@H]2CC[C@H](C2)N1C(=O)CN)C(=O)N[C@@H]1CCc2ccccc21.O=C(O)C(F)(F)F | 96.04% | inactive | inactive | 98.48% | inactive | Activity (SH-SY5Y [9]): 4%; Activity (SH-SY5Y [7]): 40.76%
16 | COC(=O)CC[C@H](NC(=O)[C@@H]1[C@H]2CC[C@H](C2)N1C(=O)CN(C)C)C(=O)N[C@@H]1CCc2ccccc21 | – | – | inactive | 100.56% | inactive | –
17 | COC(=O)CC[C@H](NC(=O)[C@@H]1[C@H]2CC[C@H](C2)N1C(=O)CN)C(=O)NC12CC3CC(CC(C3)C1)C2.O=C(O)C(F)(F)F | 93.91% | 20% | inactive | 102.46% | inactive | Activity (SH-SY5Y [9]): 5%
18 | COC(=O)CC[C@H](NC(=O)[C@@H]1CCCN1C(=O)CN)C(=O)N[C@@H]1CCc2ccccc21 | – | Active | – | – | – | –
19 | COC(=O)CC[C@H](NC(=O)[C@@H]1[C@H]2CC[C@H](C2)N1C(=O)CN(C)C)C(=O)NC12CC3CC(CC(C3)C1)C2 | 97.93% | 24% | – | – | – | –
